Assay results as given in patent US9133104B2 (Chroma Therapeutics Ltd., priority 2005, dated 2015).

What was measured:
HUT cancer cell line = assay: Cell inhibition assay (SRB cell viability), HUT; type: cell-based; conditions: HUT cells, 72 h, IC50 range
Method in brief: (§1)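 Log-phase Hela, U937 and HUT cells were seeded at 1000 cells/well, grown 24 h, then exposed to compound (20 uM final) for 72 h. Viability was read by sulphorhodamine B staining and expressed as % inhibition relative to DMSO control. IC50 values came from sigmoidal variable-slope fits of eight concentrations.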

[1] = target: T1, histone deacetylase activity (HeLa nuclear extract); assay: HDAC fluorescent activity assay (Biomol Fluor de Lys), HeLa nuclear extract; type: biochemical; conditions: Fluor de Lys substrate, IC50 range
T1 construct: Histone deacetylase activity from crude nuclear extract derived from HeLa cells was used for screening
Method in brief: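 Crude HeLa nuclear extract (20 mM Hepes, 100 mM KCl, 0.2 mM EDTA, 0.5 mM DTT, 0.2 mM PMSF, 20% glycerol) incubated with acetyl-lysine Fluor de Lys substrate ± inhibitor; developer generates fluorophore. Background-subtracted % of vehicle control; IC50 from eight-point variable-slope sigmoidal fit.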

Hela cancer cell line = assay: Cell inhibition assay (SRB cell viability), Hela; type: cell-based; conditions: Homo sapiens, HeLa, 72 h, Hela cells, IC50 range
Method in brief: as §1

U937 cancer cell line = assay: Cell inhibition assay (SRB cell viability), U937; type: cell-based; conditions: Homo sapiens, U-937, U937 cells, 72 h, IC50 range
Method in brief: as §1

IC50 (HUT cancer cell line) [µM]	IC50 [1] [µM]	IC50 (Hela cancer cell line) [µM]	IC50 (U937 cancer cell line) [µM]	Structure (SMILES)
0.33 to 3.3	0.101 to 1	0.33 to 3.3	< 0.33	O=C(CCCCCCC(=O)Nc1ccc(CN[C@H](C(=O)OC2CCCC2)c2ccccc2)cc1)NO [Compound 20, (S)-[4-(7-Hydroxycarbamoyl-heptanoylamino)-benzylamino]-phenyl-acetic acid cyclopentyl ester]
0.33 to 3.3	> 1	> 3.3	0.33 to 3.3	O=C(CCCCCCC(=O)N1Cc2ccccc2C[C@H]1C(=O)N[C@@H](Cc1ccccc1)C(=O)O)NO [Compound 48, (S)-2-{[(S)-2-(7-Hydroxycarbamoyl-heptanoyl)-1,2,3,4-tetrahydro-isoquinoline-3-carbonyl]-amino}-3-phenyl-propionic acid]
> 3.3	> 1	> 3.3	0.33 to 3.3	O=C(CCCCCCC(=O)N1Cc2[nH]c3ccccc3c2C[C@H]1C(=O)N[C@H](C(=O)OC1CCCC1)c1ccccc1)NO [Compound 3, (S)-{[(S)-2-(7-Hydroxycarbamoyl-heptanoyl)-2,3,4,9-tetrahydro-1H-beta-carboline-3-carbonyl]-amino}-phenyl-acetic acid cyclopentyl ester]
< 0.33	< 0.1	0.33 to 3.3	< 0.33	O=C(NO)c1cc2ccc(CNCc3ccc(CN[C@@H](Cc4ccc(O)cc4)C(=O)OC4CCCC4)cc3)cc2s1 [Compound 106, (S)-2-(4-{[(2-Hydroxycarbamoyl-benzo[b]thiophen-6-ylmethyl)-amino]-methyl}-benzylamino)-3-(4-hydroxy-phenyl)-propionic acid cyclopentyl ester]
0.33 to 3.3	0.101 to 1	0.33 to 3.3	0.33 to 3.3	CC(C)(C)SC[C@H](NCc1ccc(CNCc2ccc3cc(C(=O)NO)sc3c2)cc1)C(=O)OC1CCCC1 [Compound 113, (R)-3-tert-Butylsulfanyl-2-(4-{[(2-hydroxycarbamoyl-benzo[b]thiophen-6-ylmethyl)-amino]-methyl}-benzylamino)-propionic acid cyclopentyl ester]
0.33 to 3.3	< 0.1	0.33 to 3.3	0.33 to 3.3	CCOC(=O)[C@H](Cc1ccccc1)NCc1cccc(NC(=O)CCCCCCC(=O)NO)c1 [Compound 26, (S)-2-[3-(7-Hydroxycarbamoyl-heptanoylamino)-benzylamino]-3-phenyl-propionic acid ethyl ester]
> 3.3	0.101 to 1	> 3.3	> 3.3	COc1ccc2[nH]c3c(c2c1)CCN(C(=O)CCCCCCC(=O)NO)C3C(=O)N[C@H](C(=O)O)c1ccccc1 (stereo partly drawn) [Compound 12, (S)-{[2-(7-Hydroxycarbamoyl-heptanoyl)-6-methoxy-2,3,4,9-tetrahydro-1H-beta-carboline-1-carbonyl]-amino}-phenyl-acetic acid]

Structure (SMILES)	IC50 (HUT cancer cell line) [µM]	IC50 [1] [µM]	IC50 (Hela cancer cell line) [µM]	IC50 (U937 cancer cell line) [µM]
CC(OC(C)(C)C)[C@H](NCc1ccc(NC(=O)CCCCCCC(=O)NO)cc1)C(=O)OC1CCCC1 (stereo partly drawn) [Compound 88, (S)-3-tert-Butoxy-2-[4-(7-hydroxycarbamoyl-heptanoylamino)-benzylamino]-butyric acid cyclopentyl ester]	0.33 to 3.3	0.101 to 1	0.33 to 3.3	< 0.33
